Laboratory results as given in ChEMBL document CHEMBL1201862, “PubChem BioAssay data set” (2004).
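Five compound concentrations were applied to cells in 96-well plates for 48 hours; endpoints were derived by simple linear interpolation of the resulting dose-response curve. GI50 = concentration required for 50% inhibition of growth.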 Activity calls are given as the source filed them. No stated cut-off is given here; in the data, active = GI50 up to about 1.1 µM and inactive = higher.

Assays:
Test in all cases: NCI tumour cell line growth inhibition, 48 h
[1] = tested on: 786-0
[2] = tested on: A498
[3] = tested on: A549
[4] = tested on: ACHN
[5] = tested on: BT-549
[6] = tested on: CAKI-1
[7] = tested on: COLO 205
[8] = tested on: DU-145
[9] = tested on: EKVX
[10] = tested on: HCC 2998
[11] = tested on: HCT-116
[12] = tested on: HCT-15
[13] = tested on: HOP-62
[14] = tested on: HOP-92
[15] = tested on: HT-29
[16] = tested on: IGROV-1
[17] = tested on: K562
[18] = tested on: KM12
[19] = tested on: M14
[20] = tested on: MCF7
[21] = tested on: MDA-MB-231
[22] = tested on: MDA-MB-435
[23] = tested on: MDA-N
[24] = tested on: MOLT-4
[25] = tested on: NCI-H226
[26] = tested on: NCI-H23
[27] = tested on: NCI-H460
[28] = tested on: NCI-H522
[29] = tested on: NCI/ADR-RES
[30] = tested on: OVCAR-3
[31] = tested on: OVCAR-4
[32] = tested on: OVCAR-5
[33] = tested on: OVCAR-8
[34] = tested on: PC-3
[35] = tested on: RPMI-8226
[36] = tested on: RXF 393
[37] = tested on: SF-268
[38] = tested on: SF-295
[39] = tested on: SF-539
[40] = tested on: SK-MEL-28
[41] = tested on: SK-MEL-2
[42] = tested on: SK-MEL-5
[43] = tested on: SK-OV-3
[44] = tested on: SN12C
[45] = tested on: SNB-19
[46] = tested on: SNB-75
[47] = tested on: SR
[48] = tested on: SW-620
[49] = tested on: T47D
[50] = tested on: TK-10
[51] = tested on: U-251
[52] = tested on: UACC-257
[53] = tested on: UACC-62
[54] = tested on: UO-31

CN1C(=O)[C@@H]2N(CSC2(C)C)C1=S
GI50 [1]: > 100 µM (inactive)
GI50 [2]: > 100 µM (inactive)
GI50 [3]: > 100 µM (inactive)
GI50 [4]: > 100 µM (inactive)
GI50 [5]: > 100 µM (inactive)
GI50 [6]: > 100 µM (inactive)
GI50 [7]: > 100 µM (inactive)
GI50 [8]: > 100 µM (inactive)
GI50 [9]: > 100 µM (inactive)
GI50 [10]: > 100 µM (inactive)
GI50 [11]: > 100 µM (inactive)
GI50 [12]: > 100 µM
GI50 [13]: > 100 µM (inactive)
GI50 [14]: 98.6 µM (inactive)
GI50 [15]: > 100 µM (inactive)
GI50 [16]: > 100 µM (inactive)
GI50 [17]: 69.7 µM (inactive)
GI50 [18]: > 100 µM (inactive)
GI50 [19]: > 100 µM (inactive)
GI50 [20]: > 100 µM (inactive)
GI50 [21]: > 100 µM (inactive)
GI50 [22]: > 100 µM (inactive)
GI50 [23]: > 100 µM (inactive)
GI50 [24]: > 100 µM (inactive)
GI50 [25]: > 100 µM (inactive)
GI50 [26]: > 100 µM (inactive)
GI50 [27]: > 100 µM (inactive)
GI50 [28]: 29.1 µM (inactive)
GI50 [29]: > 100 µM (inactive)
GI50 [30]: > 100 µM (inactive)
GI50 [31]: > 100 µM (inactive)
GI50 [32]: > 100 µM (inactive)
GI50 [33]: > 100 µM (inactive)
GI50 [34]: > 100 µM (inactive)
GI50 [35]: > 100 µM (inactive)
GI50 [36]: > 100 µM (inactive)
GI50 [37]: > 100 µM (inactive)
GI50 [38]: > 100 µM (inactive)
GI50 [39]: > 100 µM (inactive)
GI50 [40]: > 100 µM (inactive)
GI50 [41]: > 100 µM (inactive)
GI50 [42]: 4.47 µM (inactive)
GI50 [43]: > 100 µM (inactive)
GI50 [44]: > 100 µM (inactive)
GI50 [45]: > 100 µM (inactive)
GI50 [46]: > 100 µM (inactive)
GI50 [47]: > 100 µM (inactive)
GI50 [48]: > 100 µM (inactive)
GI50 [49]: > 100 µM (inactive)
GI50 [50]: > 100 µM (inactive)
GI50 [51]: > 100 µM (inactive)
GI50 [52]: > 100 µM (inactive)
GI50 [53]: > 100 µM (inactive)
GI50 [54]: > 100 µM (inactive)

COC(=O)[C@@H]1N2C(=S)N(c3ccccc3)C(=O)[C@H]2SC1(C)C
GI50 [1]: > 100 µM (inactive)
GI50 [2]: 91.4 µM (inactive)
GI50 [3]: > 100 µM (inactive)
GI50 [4]: > 100 µM (inactive)
GI50 [5]: > 100 µM (inactive)
GI50 [6]: > 100 µM (inactive)
GI50 [7]: > 100 µM (inactive)
GI50 [8]: > 100 µM (inactive)
GI50 [9]: > 100 µM (inactive)
GI50 [10]: > 100 µM (inactive)
GI50 [11]: > 100 µM (inactive)
GI50 [12]: > 100 µM
GI50 [13]: > 100 µM (inactive)
GI50 [14]: 55.6 µM (inactive)
GI50 [15]: > 100 µM (inactive)
GI50 [16]: > 100 µM (inactive)
GI50 [18]: > 100 µM (inactive)
GI50 [19]: > 100 µM (inactive)
GI50 [20]: > 100 µM (inactive)
GI50 [21]: > 100 µM (inactive)
GI50 [22]: > 100 µM (inactive)
GI50 [23]: > 100 µM (inactive)
GI50 [24]: > 100 µM (inactive)
GI50 [25]: > 100 µM (inactive)
GI50 [26]: > 100 µM (inactive)
GI50 [27]: > 100 µM (inactive)
GI50 [28]: > 100 µM (inactive)
GI50 [29]: > 100 µM (inactive)
GI50 [30]: > 100 µM (inactive)
GI50 [31]: > 100 µM (inactive)
GI50 [32]: > 100 µM (inactive)
GI50 [33]: > 100 µM (inactive)
GI50 [34]: > 100 µM (inactive)
GI50 [35]: > 100 µM (inactive)
GI50 [36]: > 100 µM (inactive)
GI50 [37]: > 100 µM (inactive)
GI50 [38]: > 100 µM (inactive)
GI50 [39]: > 100 µM (inactive)
GI50 [40]: > 100 µM (inactive)
GI50 [41]: > 100 µM (inactive)
GI50 [42]: > 100 µM (inactive)
GI50 [43]: > 100 µM (inactive)
GI50 [44]: > 100 µM (inactive)
GI50 [45]: > 100 µM (inactive)
GI50 [46]: > 100 µM (inactive)
GI50 [47]: 65.6 µM (inactive)
GI50 [48]: > 100 µM (inactive)
GI50 [49]: > 100 µM (inactive)
GI50 [50]: > 100 µM (inactive)
GI50 [51]: > 100 µM (inactive)
GI50 [52]: > 100 µM (inactive)
GI50 [53]: > 100 µM (inactive)
GI50 [54]: > 100 µM (inactive)
